Source: patent publication US20220305012A1, “L[…] TREATING SLEEP ISSUES” (EISAI R&D MANAGEMENT CO., LTD., priority 2019, published 2022)

Tests used:
Assay type in all cases: in vivo, human
[1] = system: Subjects Having Insomnia Disorder; test: Example 2: sleep efficiency (SE), polysomnography; conditions: Zolpidem ER 6.25 mg
Method: (§1) In some embodiments, a sleep parameter is determined objectively using polysomnography. Polysomnography is the monitoring of multiple electrophysiological parameters during sleep and generally includes measurement of EEG activity, electro-oculographic activity and electromyographic activity, as well as other measurements.
SE—sleep efficiency: proportion of time spent asleep per time in bed, calculated as TST/interval from lights off until lights on.
(§2) The treatment period lasted for 31 days. Subjects were randomized in a double-blind manner and received placebo, a tablet containing 5 mg of lemborexant, a tablet containing 10 mg of lemborexant, or a tablet containing 6.25 mg of zolpidem ER.
(§3) Within 5 minutes of the subject's mean habitual bedtime, study drug was administered and an overnight polysomnogram recording was initiated. At completion of the recording the following morning (Day 2), postural stability and cognitive performance were assessed. On the Day 2 evening, subjects returned to the clinic and a blood sample was collected before administering study drug, and then study drug was administered within 5 minutes of the subject's mean habitual bedtime. Again, a polysomnogram recording was initiated. The next morning (Day 3), postural stability and cognitive performance were assessed. A blood sample was also collected.
(§4) On Day 29, subjects returned to the clinic. Study drug was administered within 5 minutes of the subject's mean habitual bedtime and a polysomnogram recording was conducted. On the following morning (Day 30), postural stability and cognitive performance were assessed. After 1.5 hours of waketime, subjects rated their morning sleepiness level.
(§5) On the evening of Day 30, subjects returned to the clinic. A pre-dose blood sample was collected and study drug was again administered within 5 minutes of the subject's mean habitual bedtime. A polysomnogram recording was initiated. The following morning (Day 31), postural stability and cognitive performance were assessed and a blood sample was obtained. The ISI, FSS, EQ-5D-3L and PGI-Insomnia were administered. Blood and urine samples were collected for routine safety assessment. An electrocardiogram was performed, and vital signs and weight were assessed. The eC-SSRS was then administered to the subject. At 1.5 hours after waketime, subjects rated their morning sleepiness level.
One key secondary endpoint was to determine the change from baseline for mean sleep efficiency on Days 29 and 30 after administration of 5 mg or 10 mg of lemborexant, compared to placebo.

[2] = system: Subjects Having Insomnia Disorder; test: Example 2: wake after sleep onset in the second half of the night (WASO2H), polysomnography; conditions: Zolpidem ER 6.25 mg
Method: as §1
WASO2H: wake after sleep onset in the second half of the night: minutes of wake during the interval from 240 minutes after lights off until lights on.
as §2, §3, §4, §5
Another key secondary endpoint was to determine the change from baseline for mean wake after sleep onset in the second half of the night on Days 29 and 30 after administration of 5 mg or 10 mg of lemborexant compared to administration of 6.25 mg of zolpidem ER.

[3] = system: Subjects Having Insomnia Disorder; test: Example 2: subjective sleep onset latency (sSOL), sleep diary; conditions: 6.25 mg
From the text: As used herein, the term “subjective sleep onset latency”, abbreviated as “sSOL”, means the estimated number of minutes from the time that the subject attempted to sleep until sleep onset. In some embodiments, sSOL is derived from data entered in a subject's Sleep Diary.
In some embodiments, sleep diaries were used to assess sleep parameters reported by subjects (i.e., subjective assessments) including subjective sleep onset latency (sSOL), subjective sleep efficiency (sSE), subjective WASO (sWASO), and subjective total sleep time (sTST). Subjects were instructed to complete the Sleep Diary developed based on the consensus Sleep Diary as described in Carney et al., “The consensus sleep diary: standardizing prospective sleep self-monitoring,” Sleep 2012; 35(2):287-302. In some embodiments, the Sleep Diary was used to assess the subject's global perception of quality of sleep on the previous night with the following question: “How would you rate the quality of your sleep last night?” Subjects rated the quality of their sleep on a scale from 1 to 9, with 1 being extremely poor and 9 being extremely good. In some embodiments, the Sleep Diary was used to assess subjective ratings of morning sleepiness with the following question: “How alert/sleepy do you feel this morning?” Subjects rated their sleepiness/alertness level on a Likert scale from 1 to 9, with 1 being extremely sleepy and 9 being extremely alert.
sSOL—subjective sleep onset latency: estimated minutes from the time that the subject attempted to sleep until sleep onset.
as §2
Once home, the subject ingested study drug each night prior to bedtime and completed their sleep diary within 1 hour of waketime.

[4] = system: Subjects Having Insomnia Disorder; test: Example 2: Cognitive Performance Assessment Battery; conditions: after the first 2 nights of treatment; 3 of the 4 domains vs placebo and 5 mg, 2 of the 4 domains vs 10 mg lemborexant (FIGS. 11A-11D)
Method: FIG. 11A-FIG. 11D show the change from baseline (least squares mean) in the four domains of the Cognitive Performance Assessment Battery at Days 2/3 and Days 30/31 in patients treated with placebo, 6.25 mg of zolpidem, 5 mg of lemborexant, or 10 mg of lemborexant.
Subjects were provided with a sleep diary and trained on how to record entries. After subjects completed the sleep diary on 7 consecutive mornings, and provided that the subject was still eligible to participate in the study, they attended a second clinical meeting between 10 and 17 days before the randomization phase. […]
Within 5 minutes of the subject's mean habitual bedtime, study drug was administered and an overnight polysomnogram recording was initiated. At completion of the recording the following morning (Day 2), postural stability and cognitive performance were assessed. […] The next morning (Day 3), postural stability and cognitive performance were assessed. […]
On Day 29, subjects returned to the clinic. […] On the following morning (Day 30), postural stability and cognitive performance were assessed. […]
On the evening of Day 30, subjects returned to the clinic. […] The following morning (Day 31), postural stability and cognitive performance were assessed and a blood sample was obtained. […] An electrocardiogram was performed, and vital signs and weight were assessed. […]

Cc1ccc(-c2nc3ccc(C)cn3c2CC(=O)N(C)C)cc1 [Zolpidem ER, zolpidem, reference compound]
Sleep Efficiency, Change from Study Baseline, Mean (SD) ([1]; Days 1/2): 11.70 (9.725) | Sleep Efficiency, Change from Study Baseline, Median ([1]; Days 1/2): 10.83 | Sleep Efficiency, Mean (SD) ([1]; Days 1/2): 79.85 (8.461) | Sleep Efficiency, Median ([1]; Days 1/2): 80.73 | Sleep Efficiency, Change from Study Baseline, Mean (SD) ([1]; Days 29/30): 9.06 (11.230) | Sleep Efficiency, Change from Study Baseline, Median ([1]; Days 29/30): 8.39 | Sleep Efficiency, Mean (SD) ([1]; Days 29/30): 77.17 (10.185) | Sleep Efficiency, Median ([1]; Days 29/30): 78.70 | Wake After Sleep Onset in the Second Half of the Night, Change from Study Baseline, Mean (SD) ([2]; Days 1/2): −24.64 (33.347) | Wake After Sleep Onset in the Second Half of the Night, Change from Study Baseline, Median ([2]; Days 1/2): −24.13 | Wake After Sleep Onset in the Second Half of the Night, Mean (SD) ([2]; Days 1/2): 53.30 (27.706) | Wake After Sleep Onset in the Second Half of the Night, Median ([2]; Days 1/2): 49.25 | Wake After Sleep Onset in the Second Half of the Night, Change from Study Baseline, Mean (SD) ([2]; Days 29/30): −21.42 (36.257) | Wake After Sleep Onset in the Second Half of the Night, Change from Study Baseline, Median ([2]; Days 29/30): −19.13 | Wake After Sleep Onset in the Second Half of the Night, Mean (SD) ([2]; Days 29/30): 56.74 (31.112) | Wake After Sleep Onset in the Second Half of the Night, Median ([2]; Days 29/30): 51.25 | sSOL Change from Study Baseline, Mean (SD) ([3]; First 7 Nights of Treatment): −16.23 (29.531) minutes | sSOL Change from Study Baseline, Median ([3]; First 7 Nights of Treatment): -10.00 min | sSOL, Mean (SD) ([3]; First 7 Nights of Treatment): 44.61 (27.566) minutes | sSOL, Median ([3]; First 7 Nights of Treatment): 34.29 min | sSOL Change from Study Baseline, Mean (SD) ([3]; Last 7 Nights of Treatment): −17.04 (30.683) minutes | sSOL Change from Study Baseline, Median ([3]; Last 7 Nights of Treatment): -10.71 min | sSOL, Mean (SD) ([3]; Last 7 Nights of Treatment): 43.64 (30.649) minutes | sSOL, Median ([3]; Last 7 Nights of Treatment): 37.50 min | sSOL, Mean (SD) ([3]; Study Baseline): 60.54 (36.350) minutes | sSOL, Median ([3]; Study Baseline): 53.21 min | performance on Cognitive Performance Assessment Battery [4]: significantly worse performance than placebo
